From patent EP2163246A1, “Taurine or taurine-like substances for the prevention of the irreversible visual effects of vigabatrin” (INSERM (Institut National de la Santé et de la Recherche …, priority 2008, dated 2010)
“Also recorded” adds a separate entry of the source. Read-outs that look alike come from different tables or passages of the source.

Columns and labels:
[1] = test system: retina; assay: Photopic electroretinogram (ERG) in VGB-treated mice; type: in vivo, BALB/c mice
Experimental: (§1) ERG were recorded as described previously after the last VGB injection (Duboc et al., 2004). Anesthesia was induced by an intramuscular injection of a solution containing ketamine (100 mg/kg) and xylazine (10 mg/kg). After 10 min adaptation to a […] light intensity, ten recordings were obtained with flash intensity of 10 cdsm^-2 at an interstimulus interval 30s and subsequently averaged. These photopic ERG measurements were performed after 59 days in rats and 29 days in mice.
(§2) Sabril IS Investigator and Peer Review Groups. Epilepsia Vol. 37, 638-642 (1996)).
(§3) Animals were light-adapted for 10 minutes with a background light of 25 cdm^-2. Light flashes were then applied on this background light; the light intensity of the flash was 10 cdsm^-2 for the mouse experiments and for the rats maintained in darkness (Figs. 2, 6) or 25 cdsm^-2 for other experiments (Figs 3, 5). Ten recordings were averaged with an interstimulus interval of 30s.

[2] = test system: GABA; conditions: rats (Neal MJ. et al. 1989; Cubells JF. et al. 1987); cited from earlier work
[3] = rats, VGB 65 days, versus control
Experimental: VGB was dissolved in 0.9 % NaCl at a concentration of 125 mg/ml. It was administered at 40 mg (125 mg/ml, 0.32 ml) by daily intraperitoneal injection for 45 or 65 days and at 3 mg (60 mg/ml, 0.05 ml) to mice for 29 days (daily dose of about 200 mg/kg in rats and 150 mg/kg in mice). Vitamin B6 (active form) was administered at a dose of 1 mM/kg (solution 154,46 mg/ml) whereas taurine was provided in the drinking water at 0,1 mol/l.
After 65 days of injection, rats were anesthetized for blood sampling. Anesthesia was induced as described above. Under anesthesia an indwelling catheter was placed in the carotid artery. This method allowed obtaining a single, large, good quality blood sample. A 1 mL blood sampling was taken for each rat in a heparinized blood sampler, immediately centrifuged and frozen at -80°C. Automated amino acid ion chromatography (Pasteur Cerba, France) was used for the quantitative determination of total and free amino acids in the samples.
VGB dissolved in 0.9% NaCl was administered at 40mg (125 mg/ml, 0.32ml) to rats by daily intraperitoneal injection for 45 or 65 days and at 3mg (60mg/ml, 0.05ml) to mice for 29 days. […] Taurine supplementation was given in drinking water at a concentration of 0.1M.

[4] = test system: cone photoreceptors; assay: Retinal histology quantification in VGB-treated rats (cone arrestin, GFAP); type: in vivo, Wistar rats Rj Wi IOPS Han
Experimental: (§4) Sabril IS Investigator and Peer Review Groups. Epilepsia Vol. 37, 638-642 (1996)). […] The primary antibody added to the solution was incubated for two hours at room temperature. Polyclonal antibodies were directed against VGluT1 (1:2000, Chemicon), rabbit GFAP (1/400, Dako, USA) and mouse cone arrestin (Zhu, X., et al. Mouse cone arrestin expression pattern: light induced translocation in cone photoreceptors. Molecular vision Vol. 8, 462-471 (2002)) (Luminaire junior, LUMIj, 1:20,000). Monoclonal antibodies were directed against Goα (1:2000, Chemicon). […] Inner/outer segments of cone photoreceptors were stained with a peanut lectin (PNA, Sigma) during 12 hours of incubation at 4°C. The dye, diamidiphenyl-indole (DAPI), was added during the final incubation period. […] Following DAPI nuclear staining, the lengths of disorganised retinal areas were measured; GFAP immunostaining was used for detection and quantificationof retinal areas with reactive gliosis. The cone photoreceptor density was calculated following cone arrestin immunostaining (rats) or PNA labelling (mice) to visualise the inner/outer segments of cone photoreceptors; areas with disorganised retinal layering were excluded. Areas with sprouting bipolar cells were quantified following immunolabelling of these cells with the antibody directed against the protein Goα.

[5] = test system: cone photoreceptors; assay: Retinal histology quantification in VGB-treated mice (DAPI, PNA, Goα); type: in vivo, BALB/c mice
Experimental: as §4

[6] = test system: retina; parameters: species or system Wistar rats Rj Wi IOPS Han; conditions: rat, in vivo
Experimental: as §1, §2, §3

[7] = rats (Sills GJ. et al. 2001); cited from earlier work
[8] = test system: retinal ganglion cells; conditions: young rats, VGB 0.6 mg/day i.p. 25 days, versus control
Experimental: Animal treatments: Breeds of Wistar rats Rj Wi IOPS Han were purchased from Janvier (Le Genest-St-lsle, France). VGB dissolved in 0.9% NaCl was administered at 0.6mg/jour (6 mg/ml, 0.1ml) to rats by daily intraperitoneal injection for 25 days from age 4 days.
Histology: Animals were anesthetized by intraperitoneal injection (0.8 to 1.2 ml/kg) of a solution containing ketamine (40 mg/ml) and xylazine (4 mg/ml Rompum). They were then perfused first with heaparin 1000Ul/ml in saline solution (0.9% NaCl), then with fixative containing 4% Paraformaldehyde (Merck chemicals ref. : 100496 ) and 0.2% glutaraldehyde (fluka 25%). Eye cups were isolated and fixed overnight at 4°C in 4% (wt/vol) paraformaldehyde in phosphate buffered saline (PBS; 0.01 M, pH 7.4). The tissue was cryoprotected in successive solutions of PBS containing 10%, 20% and 30% sucrose at 4°C, oriented along the dorso-ventral axis and embedded in OCT (Labonord, Villeneuve d'Ascq, France). […]
For quantification, vertical sections along the dorso-ventral axis were selected at the optic nerve. Brn3A -positive retinal ganglion cells were quantified along the complete retinal section. […]

[9] = VGB plus taurine versus VGB alone, p<0.001

Q: Which “photopic ERG amplitude” value ([1]; mice, VGB plus vitamin B6 (active form) 1 mM/kg (Fig. 1B)) does the source give for Cc1ncc(COP(=O)(O)O)c(C=O)c1O [vitamin B6, pyridoxal-5'-phosphate] here?
A: smaller decrease in photopic ERG than with vigabatrin alone; also recorded: reduced the decrease in photopic ERG amplitude

Q: Which “GABA concentrations in the brain relative to control rats” value [2] does the source give for C=CC(N)CCC(=O)O (stereo not drawn) [VGB, 4-amino-5-hexenoic acid] here?
A: two-fold higher

Q: What about the “GABA concentrations in the retina relative to control rats” value [2] of the same compound?
A: five-fold higher

Q: What about the “decrease of taurine level in vigabatrin-treated animals” value ([3]; p<0.05) of the same compound?
A: 67%

Q: What about the “difference (reduction) for methionine” value ([3]; significant) of the same compound?
A: 22%

Q: And the “reduction of glutamic acid in the blood sample” value ([3]; statistically significant)?
A: 56%

Q: What about the GFAP immunostaining ([4]; VGB alone) of the same compound?
A: increase in GFAP immunostaining

Q: And the “sprouting of bipolar cell dendrites” value ([5]; VGB alone)?
A: observed in VGB-treated mice

Q: And the “density of cone outer and inner segments” value ([5]; VGB alone versus control, p<0.001 (Fig. 4C))?
A: lower densities

Q: And the “photopic ERG amplitude” value [6]?
A: induced a decrease in the photopic electroretinogram (ERG) measurement

Q: And the “concentration in the retina relative to the brain” value [7]?
A: five-fold higher

Q: What about the “decrease of the number of retinal ganglion cells” value [8] of the same compound?
A: 56%

Q: Which “photopic ERG amplitude” value ([1]; mouse, in vivo) does the source give for NCCS(=O)(=O)O [taurine, 2-aminoethanesulfonic acid] here?
A: the difference was no longer statistically significant between controls and vigabatrin plus taurine supplementation

Q: What about the GFAP immunostaining [4, 9] of the same compound?
A: less extensive in animals receiving taurine supplementation than in animals without supplementation

Q: And the cone segment density ([4]; VGB plus taurine versus VGB alone, p<0.05, remained lower than control)?
A: greater in the VGB-treated group with taurine supplementation than in animals without supplementation

Q: What about the “sprouting of bipolar cell dendrites” value ([5]; VGB plus taurine) of the same compound?
A: completely suppressed

Q: And the cone density [5, 9]?
A: prevented this decrease in cone density

Q: And the “disorganisation of the outer nuclear layer (areas of retinal disorganisation)” value ([5]; VGB plus taurine versus VGB alone, p<0.001 (Fig. 4B))?
A: smaller areas of retinal disorganisation than mice without supplementation
